Assay results reported in patent US12227500B2, “Substituted pyrrolo[2,3-b]pyridines for suppressing toxic endoplasmic reticulum stress” (THE TRUSTEES OF COLUMBIA UNIVERSITY IN THE CITY OF NEW YORK, priority 2018, dated 2025).

Legend:
Test in all cases: Radiolabeled ATP kinase assay, panel of 371 kinases (Table S6)
Type in all cases: biochemical
[1] = target: T1, panel of 371 human kinases (Homo sapiens, UniProt Q99759); conditions: MEKK3; 0.1 μM; 10 μM ATP; read-out: % Enzyme Activity (relative to DMSO controls)
T1 construct: purchased Reaction Biology Corp
Excerpt: (§1) ; FIG. 38C). […]. Further targeted analyses, such as genetic knock-down or knock-out, may be warranted to parse the role of these additional kinases in our model of neurodegeneration.

[2] = target: T2, panel of 371 human kinases (Homo sapiens, UniProt O43353); conditions: RIPK2; 0.1 μM; 10 μM ATP; read-out: % Enzyme Activity (relative to DMSO controls)
T2 construct: purchased Reaction Biology Corp
Excerpt: as §1

[3] = target: T3, panel of 371 human kinases (Homo sapiens, UniProt Q16816); conditions: PHKg1; 0.1 μM; 10 μM ATP; read-out: % Enzyme Activity (relative to DMSO controls)
T3 construct: purchased Reaction Biology Corp
Excerpt: as §1

[4] = target: T4, panel of 371 human kinases (Homo sapiens, UniProt Q15349); conditions: RSK3; 0.1 μM; 10 μM ATP; read-out: % Enzyme Activity (relative to DMSO controls)
T4 construct: purchased Reaction Biology Corp
Excerpt: as §1

[5] = target: T5, panel of 371 human kinases (Homo sapiens, UniProt Q7L7X3); conditions: TAOK1; 0.1 μM; 10 μM ATP; read-out: % Enzyme Activity (relative to DMSO controls)
T5 construct: purchased Reaction Biology Corp
Excerpt: as §1

[6] = target: T6, panel of 371 human kinases (Homo sapiens, UniProt P68400); conditions: CK2a; 0.1 μM; 10 μM ATP; read-out: % Enzyme Activity (relative to DMSO controls)
T6 construct: purchased Reaction Biology Corp
Excerpt: as §1

[7] = target: T7, panel of 371 human kinases (Homo sapiens, UniProt P23443); conditions: p70S6K/RPS6KB1; 0.1 μM; 10 μM ATP; read-out: % Enzyme Activity (relative to DMSO controls)
T7 construct: purchased Reaction Biology Corp
Excerpt: as §1

[8] = target: T8, panel of 371 human kinases (Homo sapiens, UniProt Q92918); conditions: HPK1/MAP4K1; 0.1 μM; 10 μM ATP; read-out: % Enzyme Activity (relative to DMSO controls)
T8 construct: purchased Reaction Biology Corp
Excerpt: as §1

[9] = target: T9, panel of 371 human kinases (Homo sapiens, UniProt P32298); conditions: GRK4; 0.1 μM; 10 μM ATP; read-out: % Enzyme Activity (relative to DMSO controls)
T9 construct: purchased Reaction Biology Corp
Excerpt: as §1

[10] = target: T10, panel of 371 human kinases (Homo sapiens, UniProt Q9HAZ1); conditions: CLK4; 0.1 μM; 10 μM ATP; read-out: % Enzyme Activity (relative to DMSO controls)
T10 construct: purchased Reaction Biology Corp
Excerpt: as §1

[11] = target: T11, panel of 371 human kinases (Homo sapiens, UniProt P52333); conditions: JAK3; 0.1 μM; 10 μM ATP; read-out: % Enzyme Activity (relative to DMSO controls)
T11 construct: purchased Reaction Biology Corp
Excerpt: as §1

[12] = target: T12, panel of 371 human kinases (Homo sapiens, UniProt Q9NRH2); conditions: SNRK; 0.1 μM; 10 μM ATP; read-out: % Enzyme Activity (relative to DMSO controls)
T12 construct: purchased Reaction Biology Corp
Excerpt: as §1

[13] = target: T13, panel of 371 human kinases (Homo sapiens, UniProt P24723); conditions: PKCeta; 0.1 μM; 10 μM ATP; read-out: % Enzyme Activity (relative to DMSO controls)
T13 construct: purchased Reaction Biology Corp
Excerpt: as §1

[14] = target: T14, panel of 371 human kinases (Homo sapiens, UniProt Q15303); conditions: ERBB4/HER4; 0.1 μM; 10 μM ATP; read-out: % Enzyme Activity (relative to DMSO controls)
T14 construct: purchased Reaction Biology Corp
Excerpt: as §1

[15] = target: T15, panel of 371 human kinases (Homo sapiens, UniProt Q13177); conditions: PAK2; 0.1 μM; 10 μM ATP; read-out: % Enzyme Activity (relative to DMSO controls)
T15 construct: purchased Reaction Biology Corp
Excerpt: as §1

[16] = target: T16, panel of 371 human kinases (Homo sapiens, UniProt Q13164); conditions: ERK5/MAPK7; 0.1 μM; 10 μM ATP; read-out: % Enzyme Activity (relative to DMSO controls)
T16 construct: purchased Reaction Biology Corp
Excerpt: as §1

[17] = target: T17, panel of 371 human kinases (Homo sapiens, UniProt Q8IVH8); conditions: for remaining activity at 0.1 µM: GLK/MAP4K3, 10 μM ATP, read-out: % Enzyme Activity (relative to DMSO controls)
T17 construct: purchased Reaction Biology Corp
T17 sequence (Q8IVH8 1-894): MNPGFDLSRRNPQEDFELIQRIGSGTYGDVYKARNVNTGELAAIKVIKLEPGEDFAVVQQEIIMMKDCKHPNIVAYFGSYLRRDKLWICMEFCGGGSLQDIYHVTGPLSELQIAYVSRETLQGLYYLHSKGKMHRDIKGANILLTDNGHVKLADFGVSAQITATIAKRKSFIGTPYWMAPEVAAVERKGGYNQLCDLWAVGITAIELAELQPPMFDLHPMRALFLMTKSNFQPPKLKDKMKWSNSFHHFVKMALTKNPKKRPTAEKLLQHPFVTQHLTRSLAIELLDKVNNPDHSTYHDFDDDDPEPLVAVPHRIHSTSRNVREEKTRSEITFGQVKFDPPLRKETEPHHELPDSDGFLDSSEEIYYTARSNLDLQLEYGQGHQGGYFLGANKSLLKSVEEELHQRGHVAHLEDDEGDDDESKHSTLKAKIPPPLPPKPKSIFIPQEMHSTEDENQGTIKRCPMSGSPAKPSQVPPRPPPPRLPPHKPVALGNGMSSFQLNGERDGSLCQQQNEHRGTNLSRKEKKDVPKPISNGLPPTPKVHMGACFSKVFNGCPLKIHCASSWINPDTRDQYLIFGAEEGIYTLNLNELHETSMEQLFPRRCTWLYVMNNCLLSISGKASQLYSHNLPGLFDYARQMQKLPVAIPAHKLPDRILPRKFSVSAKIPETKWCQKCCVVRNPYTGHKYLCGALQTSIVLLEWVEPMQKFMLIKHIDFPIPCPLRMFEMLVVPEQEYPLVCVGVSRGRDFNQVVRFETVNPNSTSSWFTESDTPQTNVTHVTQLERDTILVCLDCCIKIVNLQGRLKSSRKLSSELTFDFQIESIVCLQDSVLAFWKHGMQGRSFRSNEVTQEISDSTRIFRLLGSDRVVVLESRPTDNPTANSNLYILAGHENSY
Excerpt: as §1

[18] = target: T18, panel of 371 human kinases (Homo sapiens, UniProt Q00537); conditions: CDK17/cyclin Y (PCTK2); 0.1 μM; 10 μM ATP; read-out: % Enzyme Activity (relative to DMSO controls)
T18 construct: purchased Reaction Biology Corp
Excerpt: as §1

T12 sequence (Q9NRH2 whole entry): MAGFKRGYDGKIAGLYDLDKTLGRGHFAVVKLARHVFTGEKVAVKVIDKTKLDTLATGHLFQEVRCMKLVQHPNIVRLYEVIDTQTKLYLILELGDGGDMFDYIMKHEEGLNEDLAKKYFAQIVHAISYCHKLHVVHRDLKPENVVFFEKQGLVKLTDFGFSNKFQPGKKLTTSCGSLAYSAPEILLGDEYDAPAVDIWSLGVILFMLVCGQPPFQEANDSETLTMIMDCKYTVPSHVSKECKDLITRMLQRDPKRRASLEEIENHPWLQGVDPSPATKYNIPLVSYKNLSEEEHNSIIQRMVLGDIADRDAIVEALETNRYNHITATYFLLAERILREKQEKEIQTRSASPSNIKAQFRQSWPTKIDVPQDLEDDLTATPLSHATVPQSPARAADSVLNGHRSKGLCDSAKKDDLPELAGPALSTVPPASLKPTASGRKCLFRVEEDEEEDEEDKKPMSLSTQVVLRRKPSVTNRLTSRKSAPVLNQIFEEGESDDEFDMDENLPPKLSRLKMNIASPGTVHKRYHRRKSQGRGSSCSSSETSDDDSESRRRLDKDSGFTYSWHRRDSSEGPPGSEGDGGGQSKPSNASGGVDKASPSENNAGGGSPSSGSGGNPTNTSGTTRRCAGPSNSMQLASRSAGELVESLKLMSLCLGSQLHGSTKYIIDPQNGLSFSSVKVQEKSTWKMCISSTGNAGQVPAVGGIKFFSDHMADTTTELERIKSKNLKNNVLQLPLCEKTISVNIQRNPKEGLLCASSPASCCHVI
T16 sequence (Q13164 whole entry): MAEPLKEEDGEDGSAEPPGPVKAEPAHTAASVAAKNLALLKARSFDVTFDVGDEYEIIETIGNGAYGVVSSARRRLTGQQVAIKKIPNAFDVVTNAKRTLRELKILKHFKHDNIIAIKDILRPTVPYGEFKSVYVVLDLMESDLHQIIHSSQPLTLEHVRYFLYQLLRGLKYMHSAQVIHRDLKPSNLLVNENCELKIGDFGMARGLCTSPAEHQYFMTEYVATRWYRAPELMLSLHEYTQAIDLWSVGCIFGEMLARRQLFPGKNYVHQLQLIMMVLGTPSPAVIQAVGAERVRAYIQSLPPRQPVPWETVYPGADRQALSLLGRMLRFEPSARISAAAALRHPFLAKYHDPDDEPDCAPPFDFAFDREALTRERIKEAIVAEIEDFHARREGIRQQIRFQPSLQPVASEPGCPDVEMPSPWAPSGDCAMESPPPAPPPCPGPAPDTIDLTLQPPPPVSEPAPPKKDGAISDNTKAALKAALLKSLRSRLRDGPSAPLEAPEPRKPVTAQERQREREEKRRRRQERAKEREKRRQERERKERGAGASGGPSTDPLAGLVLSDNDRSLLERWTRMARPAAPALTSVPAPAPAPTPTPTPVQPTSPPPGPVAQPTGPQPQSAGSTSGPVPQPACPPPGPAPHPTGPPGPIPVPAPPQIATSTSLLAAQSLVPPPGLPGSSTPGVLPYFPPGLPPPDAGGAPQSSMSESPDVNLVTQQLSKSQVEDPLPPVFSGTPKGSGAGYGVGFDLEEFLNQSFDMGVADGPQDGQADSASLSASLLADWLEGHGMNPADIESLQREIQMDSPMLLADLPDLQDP
T4 sequence (Q15349 whole entry): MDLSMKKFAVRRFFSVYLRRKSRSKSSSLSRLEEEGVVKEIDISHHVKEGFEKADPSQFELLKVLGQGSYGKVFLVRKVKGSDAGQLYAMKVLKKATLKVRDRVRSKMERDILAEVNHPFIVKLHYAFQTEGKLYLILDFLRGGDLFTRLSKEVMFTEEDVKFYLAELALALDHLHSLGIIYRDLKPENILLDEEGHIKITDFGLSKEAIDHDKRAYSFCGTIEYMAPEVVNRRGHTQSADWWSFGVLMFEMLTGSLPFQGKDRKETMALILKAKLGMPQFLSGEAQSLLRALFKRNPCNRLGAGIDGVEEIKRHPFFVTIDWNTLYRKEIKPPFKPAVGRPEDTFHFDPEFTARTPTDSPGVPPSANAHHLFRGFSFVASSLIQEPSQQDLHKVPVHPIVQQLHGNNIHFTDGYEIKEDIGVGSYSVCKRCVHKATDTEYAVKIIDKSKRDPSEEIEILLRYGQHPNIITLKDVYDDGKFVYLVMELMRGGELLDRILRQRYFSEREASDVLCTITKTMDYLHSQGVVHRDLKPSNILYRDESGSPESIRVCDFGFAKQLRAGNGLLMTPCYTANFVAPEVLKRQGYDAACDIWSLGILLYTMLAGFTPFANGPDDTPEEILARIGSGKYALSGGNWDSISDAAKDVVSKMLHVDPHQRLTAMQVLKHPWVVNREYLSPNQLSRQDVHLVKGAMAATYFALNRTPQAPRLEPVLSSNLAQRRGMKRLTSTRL
T6 sequence (P68400 whole entry): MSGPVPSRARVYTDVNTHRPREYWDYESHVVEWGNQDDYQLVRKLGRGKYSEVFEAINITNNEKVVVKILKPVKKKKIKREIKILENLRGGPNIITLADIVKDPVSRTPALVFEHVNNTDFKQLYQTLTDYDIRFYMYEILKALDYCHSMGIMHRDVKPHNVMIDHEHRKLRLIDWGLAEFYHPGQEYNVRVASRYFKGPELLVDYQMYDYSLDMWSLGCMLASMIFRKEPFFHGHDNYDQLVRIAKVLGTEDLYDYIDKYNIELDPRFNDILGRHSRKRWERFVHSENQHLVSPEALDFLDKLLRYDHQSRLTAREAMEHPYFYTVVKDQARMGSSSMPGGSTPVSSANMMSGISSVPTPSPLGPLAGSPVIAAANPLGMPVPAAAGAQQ
T18 sequence (Q00537 whole entry): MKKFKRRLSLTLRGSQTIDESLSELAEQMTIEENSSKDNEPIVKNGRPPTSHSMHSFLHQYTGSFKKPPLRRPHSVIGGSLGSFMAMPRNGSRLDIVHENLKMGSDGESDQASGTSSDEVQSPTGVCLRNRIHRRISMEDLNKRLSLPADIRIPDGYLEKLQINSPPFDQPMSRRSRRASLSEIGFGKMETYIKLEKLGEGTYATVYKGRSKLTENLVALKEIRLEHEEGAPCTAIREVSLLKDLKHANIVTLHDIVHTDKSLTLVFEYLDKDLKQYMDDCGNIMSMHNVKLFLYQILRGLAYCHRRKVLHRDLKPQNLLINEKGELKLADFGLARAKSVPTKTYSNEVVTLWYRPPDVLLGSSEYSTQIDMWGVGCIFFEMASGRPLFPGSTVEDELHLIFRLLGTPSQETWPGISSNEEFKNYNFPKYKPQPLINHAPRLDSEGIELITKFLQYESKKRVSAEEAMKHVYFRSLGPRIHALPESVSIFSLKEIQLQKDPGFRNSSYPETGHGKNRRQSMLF
T10 sequence (Q9HAZ1 whole entry): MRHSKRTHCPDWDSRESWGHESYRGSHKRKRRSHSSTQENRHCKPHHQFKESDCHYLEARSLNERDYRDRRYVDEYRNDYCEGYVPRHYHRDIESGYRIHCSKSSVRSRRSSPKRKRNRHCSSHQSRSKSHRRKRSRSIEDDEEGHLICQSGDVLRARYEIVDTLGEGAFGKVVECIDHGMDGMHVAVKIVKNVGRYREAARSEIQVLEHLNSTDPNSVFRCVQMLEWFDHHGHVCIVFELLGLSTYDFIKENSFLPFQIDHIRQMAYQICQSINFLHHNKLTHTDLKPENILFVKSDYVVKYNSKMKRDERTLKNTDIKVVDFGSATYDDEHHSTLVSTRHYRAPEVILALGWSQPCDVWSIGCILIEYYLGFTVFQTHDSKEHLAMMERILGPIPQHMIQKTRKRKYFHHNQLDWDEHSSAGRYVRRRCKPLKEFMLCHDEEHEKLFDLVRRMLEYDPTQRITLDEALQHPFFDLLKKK
T13 sequence (P24723 whole entry): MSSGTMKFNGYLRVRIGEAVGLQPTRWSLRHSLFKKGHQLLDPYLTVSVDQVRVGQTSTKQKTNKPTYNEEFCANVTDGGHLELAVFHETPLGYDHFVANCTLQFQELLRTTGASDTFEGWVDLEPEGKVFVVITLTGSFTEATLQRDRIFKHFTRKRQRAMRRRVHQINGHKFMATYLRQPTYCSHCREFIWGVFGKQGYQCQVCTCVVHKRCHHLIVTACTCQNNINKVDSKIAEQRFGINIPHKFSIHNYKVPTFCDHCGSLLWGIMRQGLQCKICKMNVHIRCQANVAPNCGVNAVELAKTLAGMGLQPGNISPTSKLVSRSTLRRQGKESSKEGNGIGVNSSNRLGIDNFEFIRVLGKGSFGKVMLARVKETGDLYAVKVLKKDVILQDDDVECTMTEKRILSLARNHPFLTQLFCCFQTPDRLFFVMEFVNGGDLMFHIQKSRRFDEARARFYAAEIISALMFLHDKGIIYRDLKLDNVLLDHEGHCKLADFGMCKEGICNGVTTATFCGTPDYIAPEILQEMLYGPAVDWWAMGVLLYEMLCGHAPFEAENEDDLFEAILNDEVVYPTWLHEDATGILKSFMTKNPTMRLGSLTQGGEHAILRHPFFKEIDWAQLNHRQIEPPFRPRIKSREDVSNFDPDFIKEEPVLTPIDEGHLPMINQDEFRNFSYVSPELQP
T1 sequence (Q99759 whole entry): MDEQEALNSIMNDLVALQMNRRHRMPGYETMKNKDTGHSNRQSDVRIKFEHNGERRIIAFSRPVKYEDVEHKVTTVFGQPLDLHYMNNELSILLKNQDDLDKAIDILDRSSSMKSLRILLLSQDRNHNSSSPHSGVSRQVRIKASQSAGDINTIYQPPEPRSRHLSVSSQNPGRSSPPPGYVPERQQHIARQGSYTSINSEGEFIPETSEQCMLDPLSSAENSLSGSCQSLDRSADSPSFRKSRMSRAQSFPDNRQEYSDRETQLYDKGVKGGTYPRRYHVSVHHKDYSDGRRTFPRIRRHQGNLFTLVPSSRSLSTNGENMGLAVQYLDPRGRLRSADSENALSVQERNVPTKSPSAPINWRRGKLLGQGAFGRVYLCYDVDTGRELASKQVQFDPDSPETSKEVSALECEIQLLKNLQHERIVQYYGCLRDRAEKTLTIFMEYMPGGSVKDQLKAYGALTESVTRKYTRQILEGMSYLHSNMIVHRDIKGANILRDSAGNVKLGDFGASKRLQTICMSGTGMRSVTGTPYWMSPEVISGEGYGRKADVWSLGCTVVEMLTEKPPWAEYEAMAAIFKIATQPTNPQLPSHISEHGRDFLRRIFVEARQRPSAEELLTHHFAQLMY

SMILES | remaining activity at 0.1 µM [1] [%] | remaining activity at 0.1 µM [2] [%] | remaining activity at 0.1 µM [3] [%] | remaining activity at 0.1 µM [4] [%] | remaining activity at 0.1 µM [5] [%] | remaining activity at 0.1 µM [6] [%] | remaining activity at 0.1 µM [7] [%] | remaining activity at 0.1 µM [8] [%] | remaining activity at 0.1 µM [9] [%] | remaining activity at 0.1 µM [10] [%] | remaining activity at 0.1 µM [11] [%] | remaining activity at 0.1 µM [12] [%] | remaining activity at 0.1 µM [13] [%] | remaining activity at 0.1 µM [14] [%] | remaining activity at 0.1 µM [15] [%] | remaining activity at 0.1 µM [16] [%] | remaining activity at 0.1 µM [17] [%] | remaining activity at 0.1 µM [18] [%] | fold change in GLK activity following 12k exposure relative to 1 ([17]; 0.025 μM) [fold]
CN1CCN(Cc2ccc(-c3cnc4[nH]cc(-c5ccc6[nH]ccc6c5)c4c3)cc2)CC1 [Compound 1, 3-(1H-Indol-5-yl)-5-(4-((4-methylpiperazin-1-yl)methyl)phenyl)-1H-pyrrolo[2,3-b]pyridine, reference compound] | 91.6 | 78.5 | 37.6 | 61.7 | 78.3 | 100 | 93.2 | 49.6 | 106 | 94.5 | 90.9 | 102 | 103 | 104 | 97.1 | 102 | 49.2 | 88 | –
OCCN1CCN(Cc2ccc(-c3cnc4[nH]cc(-c5cccc(Cl)c5)c4c3)cc2)CC1 [Compound 12k, 2-(4-(4-(3-(3-Chlorophenyl)-1H-pyrrolo[2,3-b]pyridin-5-yl)benzyl)piperazin-1-yl)ethan-1-ol] | 94.6 | 92.3 | 74.5 | 45.3 | 59.8 | 110 | 99.3 | 47.9 | 106 | 71.9 | 76.2 | 43.1 | 94.6 | 97.2 | 85 | 113 | 7.18 | 74 | 6.84
